# Results published in patent US8173604B2, “Inhibition of Skp2-cyclin a interaction” (Albert Einstein College of Medicine of Yeshiva University, priority 2006, dated 2012).
# Entries after “also recorded” stand apart in the source; their conditions may differ. Numbered stars: 1 amine (or outer) side, 2 acyl side, 3 side chain; on linkers, the order of the positions; unused ones are H or OH. Bridge positions count the residues as written; N and C are the ends. Square brackets hold non-standard residues; d marks the D form. Peptide text beside a SMILES is read from it. I, II: the chains in the order shown. Actinocin(9to1) = Cc1c2oc3c(C)ccc(C(=O)[*:1])c3nc-2c(C(=O)[*:2])c(N)c1=O; NMeV = CN[C@H](C(=O)O)C(C)C; Sar = CNCC(=O)O
# Tests used:
# [1] = tested on: U2OS cells; settings: for Cell killing effect: twenty four hours after addition of peptides
# Experimental: It is currently unknown how peptide concentrations in the culture media translate into intro-cellular peptide concentrations.
# Whether artificial manipulation of Skp2 protein levels in U2OS cells could change the IC50 of various peptides was also investigated.
# (§1) Cell proliferation and survival assays. For the cell proliferation assay shown in FIG. 10D, 1×10^4 cells were plated in each well of 24 well plates and allowed to grow for a course of four days in the presence of 10% FBS. Cell numbers were counted every day from triplet wells. For cell survival assays in FIGS. 13, 14 and 15, 1×10^3 cells were plated in each well of 96 well plates and allowed to adhere overnight in the presence of 10% FBS. The cells were washed once with Opti-MEM (GIBCO) followed by incubation with different concentrations of peptides in Opti-MEM for 24 hours in triplicate. MTS assay was then performed following manufacturer's protocol (Promega).
# [2] = tested on: human diploid fibroblasts WI-38; test: Cell survival MTS assay, WI-38; assay type: cell-based; settings: 120 μM, 24 hours
# Experimental: In comparison, both TAT-Umt and TAT-4060 inhibited cyclin A/Cdk2 kinase activity in vitro at peptide concentrations of 100 μM (FIG. 11B). It is currently unknown how peptide concentrations in the culture media translate into intro-cellular peptide concentrations.
# as §1
# [3] = target: T1, cyclin A/Cdk2 (Homo sapiens, UniProt P20248+P24941); test: In vitro cyclin A/Cdk2 kinase assay with purified proteins (GST-Rb-C substrate); assay type: biochemical; settings: for Preventing Skp2N from protecting cyclin A/Cdk2 from inhibition by p27: cyclin A/Cdk2 3 nM, p27 5 nM, Skp2N 80 nM, increasing amounts of peptide
# T1 construct: made in house; host or cells: insect cells (baculovirus)
# Experimental: (§2) Cyclin A/Cdk2 kinase assays were performed as described previously (Ji et al., 2004). Both immuno-purified myc-cyclin A/Cdk2 on beads and GST-purified and eluted GST-cyclin A/Cdk2 (baculovirus vectors for GST-cyclin A and Cdk2 were provided by Brian Dynlacht) were used. The amounts of purified proteins were determined by comparing them with known amounts of standard proteins in Coomassie blue stained gels. Phosphorylation of GST-Rb-C was quantified with the ImageQuant software. The Ki of various proteins was determined by non-linear least squares analysis. To determine the amounts of various proteins in synchronized HeLa cells, extracts representing 7.5×10^4 HeLa cells were resolved with known amounts of purified proteins and compared in the same Western blots. Actual amounts of proteins in 7.5×10^4 HeLa cells were then determined (for example, the amounts of p27, Skp2, and cyclin A in 7.5×10^4 HeLa cells were determined to be about 0.1, 0.2, and 0.1 pmoles, respectively, at 14 hours post-replating; and about 0.01, 0.1, and 1.0 pmoles, respectively, at 19 hours post-replating).
# For kinase reactions, insect cell-produced and purified GST-cyclin A/Cdk2 was used at a concentration of ˜3 nM, which was the lowest concentration that yielded readily detectible phosphorylation of GST-Rb-C here. Purified p27, GST-Skp2, and Skp2N were titrated into the kinase reaction over a wide range of concentrations (FIGS. 7A, B, and C). Phosphorylation of Rb-C was measured and plotted, and the Ki of these various proteins were determined by non-linear least squares analysis (FIG. 7F).
# Since Skp2 competes with p27 for binding to cyclin A and Skp2's Ki is about 100-fold higher than p27's Ki, it can be reasoned that, at concentrations well below its Ki, Skp2 might be able to protect cyclin A/Cdk2 from inhibition by p27. To test this hypothesis, the same cyclin A/Cdk2 kinase assay was carried out to determine the inhibitory activity of p27 in the presence of 80 nM of Skp2N.
# It was then determined whether the 4060 peptide could prevent Skp2N from protecting cyclin A/Cdk2 from inhibition by p27. […] When 80 nM of Skp2N was included, 5 nM of p27 lost its ability to inhibit the kinase activity (lane 3). […] These findings indicate that the Skp2-cyclin A interaction is also a potential target to inhibit cyclin A kinase activity in tumor cells, particularly those overexpressing Skp2.
# To test this prediction, various peptides were added to an in vitro kinase reaction with purified cyclin A/Cdk2 (˜3 nM concentration). An E2F1-derived RxL peptide, LDL peptide, was used for comparison since it could inhibit cyclin A/Cdk2 kinase activity (Sun et al., 2006, and see next section). Since a TAT sequence was later added to these peptides for trans-membrane delivery (see next section), two versions of each peptide (without TAT and with TAT) was used in these kinase assays. These two versions of peptides yielded identical results and therefore only presented results with one version of the peptides.
# The effects of the 4060 peptide on cyclin A/Cdk2 kinase activity in the presence of Skp2 and p27 were then determined.
# [4] = tested on: U2OS cells; test: Flow cytometry cell cycle profile after actinomycin D; assay type: cell-based, human; settings: actinomycin D 180 nM, 20 hours
# Experimental: Drug treatment and various routine assays. Actinomycin D (Sigma) treatment was for 20-22 hours at 180 nM. To arrest HeLa cells in mitotic phase, cells were treated with 100 ng/ml nocodazole (Sigma) for 16-17 hours. Western blotting, immunoprecipitation, indirect immunofluorescence, and flow cytometry analysis to determine cell cycle profiles were all performed with standard protocols and as described previously (Ji et al., 2004).
# The AAAA mutation compromises Skp2's proliferation stimulatory activity without affecting its ability to cause degradation of cellular p27 and p21. […] Similar to the experiment shown in FIG. 6B, U2OS cells were treated with actinomycin D, which led to activation of p53, stimulation of p21 expression, and G1 cell cycle arrest manifested by a 20% increase in G1 phase cells (FIGS. 9A and B). Skp2 was overexpressed in U2OS cells to determine whether Skp2 could counter the G1 cell cycle arrest mediated by this actinomycin D triggered checkpoint.
# [5] = target: T2, Skp2-cyclin A interaction (Homo sapiens, UniProt P20248); test: GST pull-down, blocking of Skp2-cyclin A interaction by peptides; assay type: binding; settings: for Blocking of Skp2N-cyclin A interaction: GST-Skp2N, myc-cyclin A/Cdk2 transfected 293T cell extracts
# T2 construct: expressed in transfected cells; host or cells: 293T (cyclin A/Cdk2)
# Experimental: GST pull down, p27 ubiquitylation assay, and cyclin A kinase assay. GST fusion proteins were purified on GSH-beads (Amersham), which were then incubated with transfected cell extracts for 1 hour in 4° C. with rocking. The beads were washed three times with lysis buffer (25 mM Hepes pH 7.6, 100 mM KCl, 0.1 mM EDTA, 10 mM MgCl2, 0.1% NP-40, 10% glycerol, 1 mM DTT) before analysis by SDS-PAGE and Western blotting.
# Skp2-cyclin A interaction and p27-cyclin A interaction can be blocked by distinct peptides. An important aspect of the RxL-1-IP interaction is that it can be blocked by a short RxL peptide (Adams et al., 1996). If the Skp2-cyclin A/Cdk2 interaction and the p27-cyclin A/Cdk2 interaction are mediated by different sequences on both sides of the interaction, as shown above, it can be predicted that the RxL peptide should not block Skp2-cyclin A interaction. […] Peptide concentrations required for their respective blocking activities were similar for RxL and 4060 peptides.
# [6] = target: T3, interaction between cellular Skp2 and cyclin A/Cdk2 (Homo sapiens, UniProt P20248); test: Coimmunoprecipitation with cyclin A from peptide-treated U2OS cells; assay type: cell-based; settings: 50 μM peptide, twelve hours
# T3 construct: endogenous in cells; host or cells: U2OS
# Experimental: FIG. 12 is photographs of western blots and kinase assays and graphs showing the effects of trans-membrane delivery of the 4060 peptide. In Panel A, U2OS cells were treated with 50 μM of indicated peptide for twelve hours. Cell extracts were prepared for immunoprecipitation and Western blot analysis as indicated. […] In Panel C, the same extracts were used in IP-kinase assays as indicated. The extent of phosphorylation was quantified and plotted.
# The loss of Skp2-cyclin A/Cdk2 interaction was not due to a reduction in levels of these proteins (FIG. 12B). Importantly, cellular p27 protein levels were not affected by the blocking peptide. […] Here, it is important to point out that although we used p27 as an inhibitor of cyclin A-associated kinase activity in purified kinase reactions with the 4060 blocking peptide shown in FIG. 11, the effects of blocking Skp2-cyclin A interaction on cyclin A-associated kinase activity in cells is unlikely to be mediated by p27 alone. There was no significant interaction between p27 and cyclin A in U2OS cells before and after treatment of TAT-4060. p27 family members p21 and p57, and the pocket proteins p107 and p130 (Adams et al., 1996) may bind and inhibit cyclin A-associated kinase activity through the RxL-HP interaction mechanism. […]
# [7] = target: T1, cyclin A/Cdk2; test: IP-kinase assay with myc-cyclin A/Cdk2 transfected 293T cell extract; assay type: biochemical; settings: increasing amounts of peptide
# Experimental: In panel A, an IP-kinase assay was performed with myc-cyclin A/Cdk2 transfected 293T cell extract in the presence of increasing amounts of RxL or 4060 peptides. Phosphorylation of GST-Skp2N is visible in this gel. […] As indicated, increasing amounts of the 4060 or 4060AAAA peptides were included in the reactions. Phosphorylation of Rb-C was quantified and plotted as shown.
# as §2, with “To determine the amounts of various proteins in synchronized HeLa cells, extracts representing 7.5×10^4 HeLa cells were resolved with known amounts of purified proteins and compared in the same Western blots.” left out, “post-replating). […]” for “post-replating).”
molecule,measurement,setting,value
"YGRKKRRQRRRGETDHQYLAESS (TAT-Umt) [negative control peptide, reference compound]",Cell killing effect at 120 μM,[1]; 120 μM,did not exhibit cell killing effects
same,Change of peptide effect by Skp2 knockdown or overexpression,[1]; U2OS,not affected by Skp2 knockdown or overexpression
same,Cell killing effect,[1]; U2OS,did not have cell killing effects
same,WI-38 cells killed,[2],no effect
same,Inhibitory effect on cyclin A/Cdk2 kinase activity,[3]; 1 μM and 10 μM peptide,did not show inhibitory effect
same,Inhibition of cyclin A/Cdk2 kinase activity,[3]; 100 μM peptide,significant inhibition
"Cc1c2oc3c(C)ccc(C(=O)N[C@@H]4C(=O)N[C@H](C(C)C)C(=O)N5CCC[C@H]5C(=O)N(C)CC(=O)N(C)[C@@H](C(C)C)C(=O)O[C@@H]4C)c3nc-2c(C(=O)N[C@@H]2C(=O)N[C@H](C(C)C)C(=O)N3CCC[C@H]3C(=O)N(C)CC(=O)N(C)[C@@H](C(C)C)C(=O)O[C@@H]2C)c(N)c1=O [actinomycin D, Actinomycin D] (I: T[dV]P[Sar][NMeV] / II: T[dV]P[Sar][NMeV]; ester I:1-I:C, II:1-II:C; linker I:N-II:N via Actinocin(9to1))",Increase in G1 phase cells,[4],20%
"KTSEAASGMGVAAAEKEE (peptide 4060AAAA) [4060 peptide with the four conserved residues mutated to alanine, reference compound]",Blocking of Skp2N-cyclin A interaction,[5],abolished the blocking activity
same,Preventing Skp2N from protecting cyclin A/Cdk2 from inhibition by p27,[3],did not have significant effects; also recorded: much weaker in disrupting the protective effect of Skp2N
YGRKKRRQRRRGKTSEAASGMGVAAAEKEE (TAT-4060AAAA) [reference compound],Dissociation of interaction between cellular Skp2 and cyclin A/Cdk2,[6],did not have this effect
same,Cell killing effect,[1]; U2OS,did not have significant cell killing effects
"CC(C)C[C@H](NC(=O)[C@H](CC(=O)O)NC(=O)[C@H](CC(C)C)NC(=O)[C@H](CCCNC(=N)N)NC(=O)[C@H](CCCNC(=N)N)NC(=O)[C@H](CCCCN)NC(=O)[C@@H](NC(=O)[C@@H]1CCCN1C(=O)CNC(=O)[C@H](CCCNC(=N)N)NC(=O)[C@H](CCCNC(=N)N)NC(=O)[C@H](CCCNC(=N)N)NC(=O)[C@H](CCC(N)=O)NC(=O)[C@H](CCCNC(=N)N)NC(=O)[C@H](CCCNC(=N)N)NC(=O)[C@H](CCCCN)NC(=O)[C@H](CCCCN)NC(=O)[C@H](CCCNC(=N)N)NC(=O)CNC(=O)[C@@H](N)Cc1ccc(O)cc1)C(C)C)C(=O)O [TAT-LDL, reference compound]",Cell killing effect of single peptide,"[1]; U2OS, 1 or 2 μM, 24 hours",neither TAT-LDL nor TAT-4060 exhibited any cell killing effects
same,Change of peptide effect by Skp2 knockdown or overexpression,[1]; U2OS,not affected by Skp2 knockdown or overexpression
same,WI-38 cells killed,[2],25%
same,Inhibition of cyclin A/Cdk2 kinase activity towards GST-Rb-C,"[3]; 1 μM peptide, cyclin A/Cdk2 ~3 nM",ten-fold
KTSELLSGMGVSALEKEE (listed as Homo sapiens) [compound 4060],Effect of peptide itself on cyclin A/Cdk2 kinase activity towards Rb-C,[7],did not
same,Blocking of Skp2N-cyclin A interaction,[5],can block
same,Blocking of binding between full-length GST-Skp2 and cyclin A/Cdk2,[5]; full-length GST-Skp2,blocked binding
same,Preventing Skp2N from protecting cyclin A/Cdk2 from inhibition by p27,[3],p27 gradually regained its inhibitory effects; also recorded: abolished this protective effect in a dose-dependent manner
